Measured values from patent US7625870B2, “Peptide substance restoring respiratory organs function” (“Access Bioscience” CJSC, priority 2004, dated 2009).
Marks after values point to notes of the source that are not given here. Peptide text beside a SMILES is read from it.

Tests used:
[1] = tested on: lung tissue explants of mature Wistar rats; assay: Growth of lung organotypical culture explants; assay type: cell-based, rat; settings: for SI, % compared to the control: 3 days of incubation
Procedure: Lung tissue explants of mature Wistar rats were cultivated in petri dishes with collagen bottom cover. The nutritious medium was composed of 35% Eagle's medium, 35% Hanx solution, 25% calf fetal serum and 5% of chicken embryonic extract with added glucose, insulin, gentamycin and glutamin. Ala-Glu-Asp-Leu (SEQ ID NO:1) tetrapeptide was added into the cultural medium in fixed concentrations, from 0,01 to 20,0 ng per ml of nutritious medium. The same amount of natural saline solution was added to the control explants. After 3 days of incubation at the temperature of 37° C. there was assessed an extension of explants' area using phase contrast microscope. Biological activity of the preparation was evaluated by the change of square index (SI) of the explants cultivated in the medium containing the peptide, compared to the control.

[2] = tested on: acute bacterial lung injury (Staphilococcus aureus 209) in rats; assay: Acute inflammation model, bacterial lung injury in rats (BALF cytogram, AM phagocytic activity); assay type: in vivo, rat
Procedure: The study was conducted on 120 white mongrel rats with average body weight 200-230 g. The animals were divided at random into 3 groups: 10 (intact), 60 (control) and 50 (experimental). In order to infect the animals there was used twenty-four-hours' culture of Staphilococcus aureus 209, which is tropic to rodents pulmonic tissue. There was also used a cellular suspension 5×10^6 cl/ml with Freind adjuvant (25% of total volume). Before infecting the animals were exposed to a supercooling at temperature −20° C. for 1 hour. Then the animals were infected using light thiopental narcosis (8 mg/100g of body weight) in sterile box. Injections of tetrapeptide were started in 2 days after infecting and were conducted for 7 days (daily, intraperitoneally in dose of 0,2 μg/kg). Control animals were administered with 0.9% NaCl solution. The animals were excluded from the trial on the 1, 3, 6, 10, […] and 20th days by the method of cervical dislocation. In each period there was conducted BAFL testing in order to estimate its cellular content and AM phagocytic activity, superoxid-anion (SA) production and total free radical production by BAFL cells. On the 1 and the 6th days of the study there was conducted lung morphological examination.

[3] = tested on: male guinea-pigs; settings: guinea pig, in vivo
Excerpt: (§1) The general toxic effect of tetrapeptide was studied in compliance with “The manual of Experimental (Pre-Clinical) Study of New Pharmacological Substances” (2000): acute toxicity was studied in conditions of tetrapeptide single administration, subacute and chronic toxicity were investigated in conditions of long tetrapeptide administration.
The tetrapeptide was investigated for chronic toxicity for 6 months, taking into consideration the recommended period of administration, on 100 male guinea-pigs weighing 300-350 g. The animals of the experimental groups were intramuscularly injected with the tetrapeptide in the doses 1 μg/kg, 0,1 mg/kg, 1 mg/kg in 0,5 ml of natural saline solution, once a day for 6 months. The animals of the control group were administered with natural saline solution in the same amount.
These animals were exposed to the assessment of the amount of erythrocytes, hemoglobin, reticulocytes, thrombocytes, leucocytes, leukocytic formula, speed of erythrocytes sedimentation (SES), erythrocytes resistance in peripheral blood. Together with this there was measured the total protein content in the blood serum according to the method of Lowry, potassium and sodium content were measured according to the method of plasma spectrophotometry. On completion of the experiment the animals were subjected to a pathomorphological examination to assess the state of brain and spinal marrow, cerebrospinal ganglia, thyroid gland, adrenal glands, testes, pituitary body, heart, lungs, aorta, liver, kidneys, urinary bladder, pancreas, stomach, small intestine, large intestine, thymus, spleen, lymph nodes, bone marrow.

[4] = tested on: white mongrel male rats; assay: Subacute toxicity, 90 days intramuscular; assay type: in vivo, rat; settings: long term administration, doses 100-1000 times exceeding the therapeutic one
Excerpt: as §1
Subacute toxicity of the tetrapeptide was investigated on 60 white mongrel male rats weighing 150-250g. The animals of the experimental groups were exposed to intramuscular injection of the tetrapeptide in the doses of 1 μg/kg, 0,1 mg/kg, 1 mg/kg in 0,5 ml of natural saline solution, once a day for 90 days. The animals of the control group were administered with natural saline solution in the same amount. Before the onset of tetrapeptide administration in the 30th, 60th and 90th day the animals were exposed to an examination of the morphological composition and characteristics of the peripheral blood. On the completion of the experiment there were studied biochemical and coagulological blood indices.

[5] = tested on: bleomycine lung fibrosis in rats; assay: Chronic fibrosing inflammatory process (bleomycine lung fibrosis) in rats; assay type: in vivo, rat; settings: for Body weight / Relative lungs weight / Ventricular index, right ven./left ven. × 100%: 0,2 μg/kg intraperitoneally; for Blood large CIC / Blood medium CIC: blood serum
Procedure: The experiment was carried out on 120 white mongrel rats weighing 130-160 g. The animals were divided at random into 3 groups, 40 animals in each. Then the animals were subjected to a thrice-repeated intratracheal administration of bleomycine solution (at a rate of 10.0 mg per kg of body weight) with 2 weeks interval. The tetrapeptide was administered intraperitoneally in the dose of […] of body weight in sterile 0,9% NaCl solution in the course of 7 days beginning from the 5h day after each bleomycine installation.
10 animals of each group were excluded from the experiment by the method of cervical dislocation on the 15, 30, 45 and 60 days after experiment onset.
In each period there was conducted broncho-alveolar lavage fluid (BALF) test in order to estimate its cellular content, and alveolar macrophages phagocytic activity, production of superoxide-anion and total free radical production by BALF cells. In the blood and BALF there were estimated the number of circulating immune complexes (CIC). After the last bleomycin administration there was conducted lung examination.

[6] = tested on: sublethal hyperoxic lung injury in rats; assay: Sublethal hyperoxic lung injury in rats; assay type: in vivo, rat
Procedure: The experiment was conducted on 96 white mongrel rats weighing 200-230 g. The animals were divided into three groups: 8 intact animals, 48 control and 40 experimental animals. The animals were exposed to oxygenation by 100% oxygen during 60 hours in the running mode by normal pressure in chamber with oxygen expenditure, providing 8-10 full changes of the gas medium in one hour. Tetrapeptide administration was set out on the 3rd day of being in the normal atmosphere. Experimental animals were administered with the tetrapeptide (intraperitoneal administration in the dose of 0,2 μg/kg of body weight, dissolved in 0.9% sodium chloride solution (natural saline), 10 injections, every other day). […] There were conducted biometrical studies, estimation of BALF cytogram and AM phagocytic activity. BALF cellular content was estimated by coloring of the precipitated cells on the glass following the Leishman-Romanowsky method.

[7] = tested on: white mongrel male mice; assay: Acute toxicity, single intramuscular injection; assay type: in vivo, mouse; settings: dose exceeding the therapeutic one 5000 times
Excerpt: as §1
Acute toxicity was investigated on 60 white mongrel male mice weighing 20-23 g. The animals were randomized to 6 equal groups. They were intramuscularly injected with the tetrapeptide once in the doses of 1 mg/kg, 2 mg/kg, 3 mg/kg, 4 mg/kg, 5 mg/kg in 0.25 ml of natural saline solution. The control animals received the same amount of natural saline solution (0.9%).

[8] = day 3, 0,2 μg/kg intraperitoneally
[9] = day 6, 0,2 μg/kg intraperitoneally
[10] = day 10, 0,2 μg/kg intraperitoneally
[11] = day 15, 0,2 μg/kg intraperitoneally
[12] = day 20, 0,2 μg/kg intraperitoneally
[13] = in words, 0,2 μg/kg intraperitoneally

CC(C)C[C@H](NC(=O)[C@H](CC(=O)O)NC(=O)[C@H](CCC(=O)O)NC(=O)[C@H](C)N)C(=O)O [Tetrapeptide, L-alanyl-L-glutamyl-L-aspartyl-L-leucine] (H-AEDL-OH)
SI, % compared to the control ([1]; 0.01 ng/ml): 2%
SI, % compared to the control ([1]; 0.1 ng/ml): 14%
SI, % compared to the control ([1]; 0.5 ng/ml): 9%
SI, % compared to the control ([1]; 1.0 ng/ml): 22* %
SI, % compared to the control ([1]; 2.0 ng/ml): 53* %
SI, % compared to the control ([1]; 10.0 ng/ml): 25* %
SI, % compared to the control ([1]; 20.0 ng/ml): 9%
growth of organotypic lung culture explants ([1]; in words, concentrations from 1,0 to 10,0 ng/ml): reliably stimulates
BAFL cytogram, Lymphocytes [2, 8]: 1.68 ± 0.16 ×10^6 cells/lungs
BAFL cytogram, Macrophages [2, 8]: 29.7 ± 2.8*+ ×10^6 cells/lungs
BAFL cytogram, Neutrophiles [2, 8]: 6.98 ± 1.48*+ ×10^6 cells/lungs
Phagocytic index (alveolar macrophages) [2, 8]: 52.4 ± 2.9*+
Phagocytic number (alveolar macrophages) [2, 8]: 5.83 ± 0.37*+
BAFL cytogram, Lymphocytes [2, 9]: 0.86 ± 0.23 ×10^6 cells/lungs
BAFL cytogram, Macrophages [2, 9]: 24.9 ± 1.2*+ ×10^6 cells/lungs
BAFL cytogram, Neutrophiles [2, 9]: 0.52 ± 0.18 ×10^6 cells/lungs
Phagocytic index (alveolar macrophages) [2, 9]: 41.5 ± 3.1+
Phagocytic number (alveolar macrophages) [2, 9]: 4.98 ± 0.28*+
BAFL cytogram, Lymphocytes [2, 10]: 0.59 ± 0.28 ×10^6 cells/lungs
BAFL cytogram, Macrophages [2, 10]: 19.2 ± 2.8*+ ×10^6 cells/lungs
BAFL cytogram, Neutrophiles [2, 10]: 0.31 ± 0.18 ×10^6 cells/lungs
Phagocytic index (alveolar macrophages) [2, 10]: 49.2 ± 2.8+
Phagocytic number (alveolar macrophages) [2, 10]: 2.98 ± 0.32+
BAFL cytogram, Lymphocytes [2, 11]: 0.79 ± 0.20 ×10^6 cells/lungs
BAFL cytogram, Macrophages [2, 11]: 16.3 ± 2.8 ×10^6 cells/lungs
BAFL cytogram, Neutrophiles [2, 11]: 0.21 ± 0.16 ×10^6 cells/lungs
Phagocytic index (alveolar macrophages) [2, 11]: 55.9 ± 4.2
Phagocytic number (alveolar macrophages) [2, 11]: 3.74 ± 0.25
BAFL cytogram, Lymphocytes [2, 12]: 0.56 ± 0.17 ×10^6 cells/lungs
BAFL cytogram, Macrophages [2, 12]: 14.6 ± 2.1 ×10^6 cells/lungs
BAFL cytogram, Neutrophiles [2, 12]: 0.25 ± 0.11 ×10^6 cells/lungs
Phagocytic index (alveolar macrophages) [2, 12]: 49.3 ± 3.6
Phagocytic number (alveolar macrophages) [2, 12]: 3.68 ± 0.31
basal and zymosan-stimulated production of SA (superoxid-anion) by AM [2, 13]: reliably increases
normalization of free radical production of BALF cells [2, 13]: more rapid normalization
processes of lung tissue reparation ([2]; in words, dose of 0,2 μg/kg of body weight): speeding-up
chronic toxicity, side-effects [3]: does not reveal any side-effects
effect on SES, erythrocytes resistance and biochemical indices of blood serum [3]: weren't revealed a reliable effect
number of leucocytes (blood morphological content) [3]: increase
subacute toxicity, side-effects [4]: does not reveal any side-effects
number of lymphocytes in BAFL ([5]; 30th day): 1,75±0,45 ×10^6 cells/lungs
AM phagocytic activity, phagocytic index ([5]; 45th day): 75,6±4,5
AM phagocytic activity, phagocytic index ([5]; 60th day): 78,6±3,2
number of lymphocytes in BAFL ([5]; 60th day): 1,11±0,15 ×10^6 cells/lungs
Body weight ([5]; day 15): 151.6 ± 5.6 g
Relative lungs weight ([5]; day 15): 11.3 ± 0.6 mg/g of body weight
Ventricular index, right ven./left ven. × 100% ([5]; day 15): 34.2 ± 1.8+ %
BAFL large CIC ([5]; day 15): 42.6 ± 13.1 units
BAFL medium CIC ([5]; day 15): 37.6 ± 7.6 units
Blood large CIC ([5]; day 15): 47.2 ± 12.3 units
Blood medium CIC ([5]; day 15): 113.4 ± 11.6+ units
Body weight ([5]; day 30): 176.8 ± 5.8 g
Relative lungs weight ([5]; day 30): 12.8 ± 0.4 mg/g of body weight
Ventricular index, right ven./left ven. × 100% ([5]; day 30): 37.2 ± 1.5*+ %
BAFL large CIC ([5]; day 30): 52.3 ± 8.3*+ units
BAFL medium CIC ([5]; day 30): 72.3 ± 8.1*+ units
Blood large CIC ([5]; day 30): 85.9 ± 12.3*+ units
Blood medium CIC ([5]; day 30): 187.6 ± 20.4*+ units
Body weight ([5]; day 45): 195.3 ± 6.5+ g
Relative lungs weight ([5]; day 45): 11.5 ± 0.3*+ mg/g of body weight
Ventricular index, right ven./left ven. × 100% ([5]; day 45): 42.3 ± 2.1*+ %
BAFL large CIC ([5]; day 45): 76.3 ± 8.3*+ units
BAFL medium CIC ([5]; day 45): 79.4 ± 5.4*+ units
Blood large CIC ([5]; day 45): 135.2 ± 12.3*+ units
Blood medium CIC ([5]; day 45): 208.7 ± 12.5*+ units
Body weight ([5]; day 60): 234 ± 9.3+ g
Relative lungs weight ([5]; day 60): 13.4 ± 0.5*+ mg/g of body weight
Ventricular index, right ven./left ven. × 100% ([5]; day 60): 46.6 ± 1.4*+ %
Ventricular index, right ven./left ven. × 100% ([5]; day 60, listed as tetrapeptide): 46,6±1,4%
BAFL large CIC ([5]; day 60): 53.2 ± 9.4+ units
BAFL medium CIC ([5]; day 60): 41.8 ± 6.7+ units
Blood large CIC ([5]; day 60): 81.3 ± 11.3*+ units
Blood medium CIC ([5]; day 60): 159.4 ± 12.8+ units
basal superoxid-anion production in response to respiratory explosion stimulators ([5]; in words): decrease
lung morphologic changes as compared to control animals ([5]; in words, after the 3rd bleomycine installation): reliably less pronounced
Body weight ([6]; 0,2 μg/kg intraperitoneally, 10 injections, day not given): 228 ± 6+ g
Phagocytic activity of AM, Phagocytic index ([6]; day 10): 50.8 ± 2.3+
Phagocytic activity of AM, Phagocytic number ([6]; day 10): 5.78 ± 0.42*+
Phagocytic activity of AM, Phagocytic index ([6]; day 10, listed as tetrapeptide): 50,8±2,3
Phagocytic activity of AM, Phagocytic index ([6]; day 20): 45.8 ± 2.6*+
Phagocytic activity of AM, Phagocytic number ([6]; day 20): 3.35 ± 0.35+
Phagocytic activity of AM, Phagocytic index ([6]; day 20, listed as tetrapeptide): 45,5±2,6
Phagocytic activity of AM, Phagocytic index ([6]; day 30): 42.7 ± 2.5
Phagocytic activity of AM, Phagocytic number ([6]; day 30): 2.83 ± 0.36
Phagocytic activity of AM, Phagocytic index ([6]; day 40): 40.3 ± 2.3
Phagocytic activity of AM, Phagocytic number ([6]; day 40): 3.45 ± 0.23
Phagocytic activity of AM, Phagocytic index ([6]; day 50): 38.5 ± 2.3
Phagocytic activity of AM, Phagocytic number ([6]; day 50): 3.21 ± 0.24
pathomorphological changes manifestation (interstitial fibrosis, atelectasis foci, cellular infiltration) ([6]; in words): decrease
acute toxicity, toxic reactions [7]: does not cause any toxic reactions
